# Test results published in US9926585B2, “Method for producing a minor ginsenoside using a ginsenoside glycosidase” (INTELLIGENT SYNTHETIC BIOLOGY CENTER, priority 2015, dated 2018).
# “Also recorded” adds a separate entry of the source. Read-outs that look alike come from different tables or passages of the source.
# B1: MT619: ginsenoside glycosidase of SEQ ID NO: 1 screened from Microbacterium testaceum, 619 amino acids (protein, listed as Microbacterium testaceum)
# chain: MTHARFLTAPDGTRFRDLNGNGVMDPYENPALSVEERTDDLVSRLSLEEKVGLMFQTVIEVGDEGELLEAPGKISKSPTTTVVVGKHMNHFNVHAIRTARQAATWNNNLQALAETTPHGIPVTISTDPRHAFVENTGVAFSAGPFSQWPEGLGLAALDDVDTVREFAEVARREYVAVGIRAALHPQIDLATEPRWGRQAQTLGQDAARVTEFTAAYLQGFQGDELGPDSVACTTKHFPGGGPQLDGEDAHFPYGREQVYPGGMFDYHLEPFREAIRCGTAGMMPYYGMPVGLEVDGLPIEEVGFGYNRQIITGLLREQLGYDGVVVTDWELVNDNHVGDQVLPARAWGVEHLSAVERMEKILDAGSDQFGGEECVEMLVDLVRAGRVSEERIDESVRRLLRVKFQLGLFDDPYVDVDEAERIVGNAEFRALGERAQAHSLTVLVNEGDVLPLRPAGAVYIEGFRPDDVAELGRVVTDPAEADLAIVRIGAPFDPRDDLFLEAWFHQGSLEFAPGLVYRLQQIAASCPLILVVNLDRPAILTPFVGHAAAIVADYGSSSAAVLDALTGRVPPRGRLPIEIPRSMDAVRSSREDVPSDTGDPVFPVHHGVELKVSTGAQRG
# What was measured:
# [1] = tested on: ginsenoside glycosidase MT619; assay: Effects of metals and chemical reagents on MT619 activity (residual activity, pNPG substrate); type: biochemical, Microbacterium testaceum
# [2] = tested on: ginsenoside glycosidase MT619; assay: Ginsenoside conversion ability of MT619 (TLC); type: biochemical, Microbacterium testaceum; conditions: 2.0 mg/ml MT619, 2.0 mg/ml substrate, 37° C., 1.5 hr
# Description: In order to analyze the specificity and selectivity of the enzyme for the hydrolysis of a sugar attached at the C-6 position of ginsenoside, ginsenoside Re, Rg1 and Rg2 were used as the substrates.
# 2.0 mg/ml of MT619 in 50 mM sodium phosphate buffer (pH 7.0) was reacted with each 2.0 mg/ml of the three substrates in 50 mM sodium phosphate (pH 6.0) at an equal volume at 37° C. In order to measure cleavage activity of MT619, the samples were collected at 1.5 hr after reaction, and an equal volume of water-saturated butanol was added to stop the reaction. The n-butanol fraction was evaporated to dryness, and residual material was dissolved in CH3OH and then examined by thin layer chromatography (TLC), and the results are given in FIG. 4.
# [3] = tested on: ginsenoside glycosidase MT619; assay: Substrate specificity of MT619 with chromogenic ONP and PNP substrates; type: biochemical, Microbacterium testaceum; conditions: for substrate specificity of MT619: 2.0 mM substrate, 37° C.; for Relative activity (%) MT619: final substrate concentration 2.0 mM, 37° C. for 5 minutes, relative to enzymatic activity for pNP-β-D-glucopyranoside
# Description: In order to analyze substrate specificity of […], 2.0 mM chromogenic O-nitrophenyl (ONP) and p-nitrophenyl (PNP) were used as substrates, and measured at 37° C. for 5 minutes. 1 activity unit was defined as the release of 1 μmol of o-nitrophenol or p-nitrophenol per minute. Substrates used for analysis were pNP-α-L-arabinofuranoside, pNP-β-L-arabinopyranoside, pNP-α-L-D-fucopyranoside, pNP-α-L-rhamnopyranoside, pNP-α-D-glucopyranoside, pNP-α-D-mannopyranoside, pNP-β-D-galactopyranoside, oNP-β-D-glucopyranoside, oNP-β-D-fucopyranoside, pNP-β-D-xylopyranoside, pNP-β-L-arabinofuranoside, oNP-β-D-fucopyranoside, oNP-α-D-galactopyranoside, and pNP-β-D-glucopyranoside, which were purchased from Sigma.
# [4] = Effect of pH on enzymatic activity and stability of MT619; type: biochemical
# Description: In order to measure the effect of pH on the enzymatic activity of MT619, 2.0 mM pNPGlc (p-nitrophenyl-D-glucopyranoside; Sigma) was used as a substrate, and pH was adjusted using the following buffer (50 mM). pH range of 2 to 10: KCl—HCl (pH 2), glycine-HCl (pH 3), sodium acetate (pH 4 and pH 5), sodium phosphate (pH 6 and pH 7), Tris-HCl (pH 8 and pH 9) and glycine-sodium hydroxide (pH 10).
# Further, the effect of pH on the enzymatic stability was measured. Enzyme was incubated in each of the above mentioned buffers at 4° C. for 24 hours, and then pNPGlc was analyzed in 50 mM potassium buffer to measure the enzymatic stability according to pH change. Residual activity was analyzed according to a standard analytical procedure, and the results are given in FIG. 2 as an activity percentage obtained at the optimum pH.
# [5] = F1 production ability from ginsenoside Rg1, MT619 compared with BgpA; type: biochemical
# From the text: In order to evaluate production ability of MT619 to produce F1 by using Rg1 as a substrate, its F1 production ability was compared with that of ginsenoside glucosidase derived from […].
# BgpA derived from Terrabacter ginsenosidimutans, which is known to produce F1 by using ginsenoside Rg1 as a substrate, was used as a comparative control group.
# [6] = type: biochemical; conditions: 2.0 mM pNPGlc, 50 mM potassium phosphate buffer, 10 minutes, 4 to 65° C.
# Description: In order to measure the effect of temperature on the enzymatic activity of MT619, 2.0 mM pNPGlc (p-nitrophenyl-3-Dglucopyranoside; Sigma) was used to analyze the temperature-dependent activity in the 50 mM potassium phosphate buffer at the optimum pH for 10 minutes while varying the temperature between 4 to 65° C.
# Further, in order to measure the effect of temperature on the enzymatic stability of MT619, the equivalent amount of enzyme was incubated in 50 mM potassium phosphate buffer within the same temperature range for 30 minutes. In detail, the sample was cooled in ice for 10 minutes, and temperature stability analysis was performed by measuring the residual activity according to a standard analytical procedure, and the results are given in FIG. 3.
# [7] = 10 mM reagent, 37° C. for 30 minutes, pNPG substrate, residual activity as percentage of activity without the compounds
molecule,measurement,setting,value
O=C(O)CN(CCN(CC(=O)O)CC(=O)O)CC(=O)O [EDTA],Relative activity (%),[1],80.9 ± 2.3%
"O[C@H](CS)[C@H](O)CS (racemic) [DTT, dithiothreitol]",Relative activity (%),[1]; [7],79.6 ± 1.6%
[Cl-].[Cl-].[Zn+2] [ZnCl2],effect of ions on enzymatic activity of MT619,"[1]; 10 mM, 37° C., 30 minutes",strongly inhibited
CCCCCCCCCCCCOS(=O)(=O)[O-].[Na+] [SDS],Relative activity (%),[1]; [7],80.6 ± 6.1%
"CC(C)=CCC[C@](C)(O[C@@H]1O[C@H](CO)[C@@H](O)[C@H](O)[C@H]1O)[C@H]1CC[C@]2(C)[C@@H]1[C@H](O)C[C@@H]1[C@@]3(C)CC[C@H](O)C(C)(C)[C@@H]3[C@@H](O[C@@H]3O[C@H](CO)[C@@H](O)[C@H](O)[C@H]3O[C@@H]3O[C@@H](C)[C@H](O)[C@@H](O)[C@H]3O)C[C@]12C [Re, ginsenoside Re]","conversion of ginsenoside by MT619 (TLC, words)",[2],converted into ginsenoside F1
[Cl-].[Cl-].[Mg+2] [MgCl2],Relative activity (%),[1]; [7],112.7 ± 4.1%
"O=[N+]([O-])c1ccccc1O[C@@H]1O[C@H](CO)[C@@H](O)[C@H](O)[C@H]1O [oNP-β-glucopyranoside, oNP-β-D-glucopyranoside]",substrate specificity of MT619,[3],showed substrate specificity
same,Relative activity (%) MT619,[3],28.7 ± 2.1%
"[Cl-].[Na+] [Nacl, NaCl]",Relative activity (%),[1]; [7],128.1 ± 3.7%
same,effect of ions on enzymatic activity of MT619,"[1]; 10 mM, 37° C., 30 minutes, listed as Na^+",did not greatly increase; also recorded: not greatly increased
[Cl][Mn][Cl] [MnCl2],Relative activity (%),[1]; [7],59.9 ± 2.6%
[Cl-].[Cl-].[Co+2] [CoCl2],Relative activity (%),[1],17.9 ± 0.5%
same,effect of ions on enzymatic activity of MT619,[1],strongly inhibited
[Cl-].[K+] [KCl],Relative activity (%),[1]; [7],95.3 ± 1.1%
same,effect of ions on enzymatic activity of MT619,"[1]; 10 mM, 37° C., 30 minutes, listed as K^+",did not greatly increase; also recorded: not greatly increased
[Ca+2].[Cl-].[Cl-] [CaCl2],Relative activity (%),[1]; [7],132.8 ± 2.4%
same,effect of ions on enzymatic activity of MT619,"[1]; 10 mM, 37° C., 30 minutes, listed as Ca^2+",did not greatly increase; also recorded: not greatly increased
[Cl][Hg][Cl] [HgCl2],effect of ions on enzymatic activity of MT619,"[1]; 10 mM, 37° C., 30 minutes",strongly inhibited
"O=[N+]([O-])c1ccc(O[C@@H]2O[C@H](CO)[C@@H](O)[C@H](O)[C@H]2O)cc1 [pNP-β-D-glucopyranoside, p-nitrophenyl-β-D-glucopyranoside]",substrate specificity of MT619,[3],highest substrate specificity
same,Relative activity (%) MT619,[3],100 ± 1.2%
"CC(C)=CCC[C@](C)(O[C@@H]1O[C@H](CO)[C@@H](O)[C@H](O)[C@H]1O)[C@H]1CC[C@]2(C)[C@@H]1[C@H](O)C[C@@H]1[C@@]3(C)CC[C@H](O)C(C)(C)[C@@H]3[C@@H](O[C@@H]3O[C@H](CO)[C@@H](O)[C@H](O)[C@H]3O)C[C@]12C [Rg1, ginsenoside Rg1]","conversion of ginsenoside by MT619 (TLC, words)",[2],conversion of ginsenoside Rg1 into F1 was confirmed; also recorded: converted into ginsenoside F1
OCCS [Beta-Mercaptoethanol],Relative activity (%),[1]; [7],94 ± 2%
[Cl][Cu][Cl] [CuCl2],effect of ions on enzymatic activity of MT619,"[1]; 10 mM, 37° C., 30 minutes",strongly inhibited
B1,pH of highest activity and stability,"[4]; pH 2 to 10 buffers 50 mM, stability after 4° C. for 24 hours",7.0
same,pH of highest stability,[4]; summary statement of Example 3-2,7.0
same,time of highest F1 production ability after initiation of the reaction,"[5]; enzyme 0.1 mg/ml, Rg1 substrate",2 h
same,F1 produced,"[5]; enzyme concentration 0.1 mg/ml, Rg1 (2.0 mg/ml) as substrate",1.3 mg
same,production of F1 relative to BgpA,"[5]; enzyme concentration 0.1 mg/ml, Rg1 as substrate",7 times
same,temperature of highest activity (optimum temperature),[6],45 °C
